Experimental data reported in PMC12474180 (Toxins, 2025).
Read-outs that look alike come from different tables or passages of the source.

Legend:
[1] = system: m6-ΔmlrC
[2] = system: m6-ΔmlrB
[3] = system: MlrB
[4] = system: m6-ΔmlrD
[5] = system: MlrC
[6] = system: m6-ΔmlrA
[7] = system: MlrA
[8] = system: MlrB; test: purified recombinant MBP-tagged MlrB (0.05 mg/L purified enzymes); details: Sphingopyxis sp. m6, 30 °C, up to 6 h
[9] = system: MlrC; test: purified recombinant MBP-tagged MlrC (0.05 mg/L purified enzymes); details: Sphingopyxis sp. m6, 30 °C, up to 6 h
[10] = system: MlrC; test: recombinant MlrC; details: cited from earlier work
[11] = Sphingopyxis sp. m6 (wild-type) cells in MSM; details: Sphingopyxis sp. m6, 30 °C, up to 6 h
[12] = system: MlrB; details: cited from earlier work
[13] = system: MlrA; test: purified recombinant MBP-tagged MlrA (0.05 mg/L purified enzymes); details: Sphingopyxis sp. m6, 30 °C, up to 30 min
[14] = system: MlrC; details: Sphingomonas ACM-3962 and Sphingopyxis sp. C-1; cited from earlier work
[15] = system: MlrA, MlrB, MlrC; test: Mlr enzymes of Sphingomonas sp. ACM-3962; details: cited from earlier work
[16] = knockout mutant m6-ΔmlrD cells in MSM; details: Sphingopyxis sp. m6, 30 °C, up to 6 h
[17] = knockout mutant m6-ΔmlrC cells in MSM; details: Sphingopyxis sp. m6, 30 °C, up to 6 h
[18] = knockout mutant m6-ΔmlrB cells in MSM; details: Sphingopyxis sp. m6, 30 °C, up to 6 h
[19] = system: MlrA; details: cited from earlier work

Compound: COC(Cc1ccccc1)C(C)C=C(C)C=CC(N)C(C)C(=O)O (stereo not shown) [Adda, 3-amino-9-methoxy-2,6,8-trimethyl-10-phenyl-deca-4,6-dienoic acid]
- degrading ability of the strain [1]: can all degrade
- degrading ability of the strain [2]: can all degrade
- Degrading ability of MlrB [3]: -
- degrading ability of the strain [4]: can all degrade
- Degrading ability of MlrC [5]: -
- degrading ability of the strain [6]: can all degrade
- Degrading ability of MlrA [7]: -

Compound: Adda-Glu-Mdha-Ala-Leu-MeAsp-Arg
- cleaved bond [8]: Ala-Leu
- cleaved bond [9]: Adda-Glu
- fragment found [10]: hexapeptide compound
- cleaved bond [11]: Ala-Leu
- fragment found [12]: tetrapeptide (Adda-Glu-Mdha-Ala)
- not cleaved [13]: can’t degrade
- fragment found [14]: Adda

Compound: cyclo-(Ala-Leu-MeAsp-Arg-Adda-Glu-Mdha)
- fragment found [15]: linearized MC-LR and tetrapeptide and Adda
- fragment found [16]: linearized MC-LR, within 1 h and tetrapeptide and Adda
- fragment found [17]: linearized MC-LR, within 1 h and tetrapeptide and Adda
- not cleaved [8]: can’t degrade
- not cleaved [9]: can’t degrade
- cleaved bond [11]: Arg-Adda, first_seen
- fragment found [18]: linearized MC-LR, within 1 h and tetrapeptide, minor and Adda
- fragment found [19]: linearized MC-LR (Adda-Glu-Mdha-Ala-Leu-MeAsp-Arg), first_seen
- cleaved bond [13]: Arg-Adda

Compound: Adda-Glu-Mdha-Ala
- not cleaved [8]: can’t degrade
- cleaved bond [9]: Adda-Glu
- cleaved bond [11]: Adda-Glu
- not cleaved [13]: can’t degrade
- fragment found [14]: Adda
